Experiments:
[1] = tested on: cerebral arteriogenesis (posterior cerebral artery collateral pathway); assay: 3-vessel occlusion (3-VO) cerebral arteriogenesis model: collateral growth / posterior cerebral artery diameter; assay type: in vivo, rat; details: for arteriogenesis (collateral growth) / cerebral arteriogenesis: rat 3-VO model; for arteriogenesis (collateral growth): antagonist treatment, 3 weeks post 3-VO (FIG. 5); for artery diameter changes (posterior cerebral artery) / collateral arterial growth: rat 3-VO, 3 weeks; for artery diameter changes (posterior cerebral artery): compared with untreated controls; for collateral arterial growth: ipsilateral and contralateral collateral pathways (FIGS. 5B and 5C); for cerebral arteriogenesis: BR1 agonist treatment, 1 week post 3-VO (FIG. 6)
Method: Pharmacological modulation of arteriogenesis was analyzed using a 3 vessel occlusion (3-VO) model for cerebral arteriogenesis in the rat (Occlusion of both vertebral arteries and one carotid artery). Upon occlusion of three of four blood-supplying arteries to the brain, blood flow is redistributed by the recruitment of collateral pathways such as the posterior cerebral artery to supply the hypoperfusion area with blood. The 3-VO model in the rat has been established since 2003 and is acknowledged as a hypoperfusion model for testing cerebral arteriogenesis (Busch, Buschmann et al. 2003). By using the 3-VO model, relevant therapeutic stimulation of arteriogenesis was shown for instance by the application of GM-CSF (Buschmann, Circulation 2003). Either by inhibition or stimulation of the bradykinin receptor signaling pathways, arteriogenesis was determined and physiological parameters of the brain were tested. […] The characterization of arteriogenesis was carried out via measurement of the artery or blood vessel diameter (posterior cerebral artery-PCA) in addition to via a measurement of the cerebrovascular reactivity (perfusion reserves in the brain). Cerebrovascular anatomy was studied after maximal vasodilation by a modification of the postmortem latex perfusion method of Maeda et al (Maeda, Hata et al. 1998).

[2] = tested on: cerebrovascular reactivity (perfusion reserves in the brain); assay: 3-VO cerebral arteriogenesis model: cerebrovascular reactivity (acetazolamide, laser-doppler); assay type: in vivo; details: rat; for cerebrovascular reactivity (CVR), increase in blood flow: three weeks after 3-VO (FIG. 5D)
Method: Pharmacological modulation of arteriogenesis was analyzed using a 3 vessel occlusion (3-VO) model for cerebral arteriogenesis in the rat (Occlusion of both vertebral arteries and one carotid artery). Upon occlusion of three of four blood-supplying arteries to the brain, blood flow is redistributed by the recruitment of collateral pathways such as the posterior cerebral artery to supply the hypoperfusion area with blood. The 3-VO model in the rat has been established since 2003 and is acknowledged as a hypoperfusion model for testing cerebral arteriogenesis (Busch, Buschmann et al. 2003). By using the 3-VO model, relevant therapeutic stimulation of arteriogenesis was shown for instance by the application of GM-CSF (Buschmann, Circulation 2003).
The characterization of arteriogenesis was carried out via measurement of the artery or blood vessel diameter (posterior cerebral artery—PCA) in addition to via a measurement of the cerebrovascular reactivity (perfusion reserves in the brain). Cerebrovascular anatomy was studied after maximal vasodilation by a modification of the postmortem latex perfusion method of Maeda et al (Maeda, Hata et al. 1998).
CVR is reduced through selective inhibition of the bradykinin B1 and B2 signaling pathways. Negative CVR values are based on the Steal phenomenon (Kuwabara, Ichiya et al. 1995). (FIG. 5D). Upon increase of the CO2 partial pressure under normal conditions, vessels in the brain are capable of increasing blood flow to around 20% of the normal blood flow. Directly after the 3-VO experiment no cerebrovascular reactivity is detectable anymore. Blood flow recovers within 3 weeks post 3-VO and the perfusion reserve is restored to around 10%.

Bradykinin receptor 1 [3] = molecular target: T1, Bradykinin receptor 1 (Homo sapiens, UniProt P46663); details: described as moderate; cited from earlier work
T1 sequence (P46663 1-353): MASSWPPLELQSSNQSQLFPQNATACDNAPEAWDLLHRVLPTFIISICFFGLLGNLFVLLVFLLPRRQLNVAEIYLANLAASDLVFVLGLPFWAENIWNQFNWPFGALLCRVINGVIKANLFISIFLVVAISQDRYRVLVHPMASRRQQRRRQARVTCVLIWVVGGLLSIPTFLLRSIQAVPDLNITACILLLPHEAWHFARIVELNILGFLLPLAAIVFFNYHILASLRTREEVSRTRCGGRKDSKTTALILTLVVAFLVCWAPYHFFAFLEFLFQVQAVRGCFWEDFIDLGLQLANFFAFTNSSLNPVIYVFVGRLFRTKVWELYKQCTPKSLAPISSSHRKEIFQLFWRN

[4] = relative to the natural ligand Lys-desArg-bradykinin; cited from earlier work
Bradykinin receptor 1 [5] = molecular target: T1, Bradykinin receptor 1; details: described as moderate; cited from earlier work; remark: listed apart in the source

## NC(N)=NCCC[C@@H](N)C(=O)N[C@@H](CCCN=C(N)N)C(=O)N1CCC[C@H]1C(=O)N1C[C@H](O)C[C@H]1C(=O)NCC(=O)N[C@@H](Cc1cccs1)C(=O)N[C@@H](CO)C(=O)N1Cc2ccccc2C[C@@H]1C(=O)N1[C@H](C(=O)N[C@@H](CCCN=C(N)N)C(=O)O)C[C@@H]2CCCC[C@@H]21 [HOE-140, icatibant]
[1]
  arteriogenesis (collateral growth): inhibited
  artery diameter changes (posterior cerebral artery): reduced collateral growth
  collateral arterial growth: slightly
[2]
  cerebrovascular reactivity (CVR), increase in blood flow: no increase in blood flow is detected

## (Des-Arg^9, Leu^8)-bradykinin [H1960]
[1]
  arteriogenesis (collateral growth): inhibited
  artery diameter changes (posterior cerebral artery): increase in diameter to a lesser extent than in the untreated controls
  collateral arterial growth: strongly reduced
[2]
  cerebrovascular reactivity (CVR), increase in blood flow: no increase in blood flow is detected

## Sar-[D-Phe8]-des-Arg9-bradykinin [R838]
[1]
  cerebral arteriogenesis: stimulated therapeutically
[1]; listed as Sar[DPhe8]desArg-bradykinin
  cerebral arteriogenesis: therapeutically enhanced
[1]; rat, seven days after 3-VO, versus untreated rats after 3-VO (FIG. 6B,C)
  diameter of the posterior cerebral artery (PCA): significantly greater
[2]; 1 week post 3-VO (FIG. 6D)
  cerebrovascular reactivity (CVR): significantly increased
Bradykinin receptor 1 [3]
  potency relative to the natural ligand Lys-desArg-bradykinin: ~2 fold less
[4]
  susceptibility toward proteolysis: lower susceptibility toward proteolysis
Bradykinin receptor 1 [5]
  affinity relative to the natural ligand Lys-desArg-bradykinin: about 11 fold less

Source: patent US9492495B2, “Therapeutic use of agonists or antagonists of bradykinin receptor 1 or 2, for modulation collateral blood vessel growth” (MAX-DELBRUECK-CENTRUM FUER MOLEKULARE MEDIZIN, priority 2010, dated 2016)
